Experiment [1] has as its target hβ2 adrenergic receptor (Homo sapiens (Human), UniProt P07550). Kind of experiment: Assay for determining adrenergic receptor agonist potency (cAMP Flashplate, HEK-293 cells). The class given is cell-based. The following applies: data rounded to nearest 1 nM.
Experiment [2] concerns the target hM3 muscarinic receptor (Homo sapiens (Human), UniProt P20309). Kind of experiment: Radioligand binding assay for muscarinic receptors ([3H]-NMS displacement, CHO cell membranes). A digest of the protocol:
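[3H]-NMS displacement used homogenized CHO membranes, with test compounds at final concentrations of […]. Plates were incubated 6 hours at 37 °C, then filtered and read by liquid scintillation counting. A one-site competition fit gave values that were converted to Ki.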

Experiment [3] relates to MCh-induced bronchoconstriction. Kind of experiment: Einthoven assay: bronchoprotection against methacholine (MCh)-induced bronchoconstriction. In kind it is in vivo, rat. The following applies: rat, 100 μg by inhalation, 24 h after administration; for inhibition in vivo at 0.1 mg: inhaled or nasal, read-out: Broncho. at 24 h. The essentials:
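Male Sprague-Dawley rats received 100 μg compound (unless stated) or water vehicle by 10-min inhalation. At set times, anesthetized, ventilated rats were challenged with IV MCh at 40 and 80 μg/kg (2.5-min infusions). Ventilation-pressure rise is expressed as % inhibition versus vehicle controls.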

Setting [4] is: hM3 Muscarinic Receptor Binding, data rounded to nearest 0.1 nM.

The term EC50 denotes the midpoint of the concentration-response curve. The low end stands for an effect from little substance, the high end for a need for much substance. As a reminder, the Ki is the equilibrium dissociation constant of an inhibitor or competing ligand from its target. Read a high Ki as lower affinity.

Structures are written as SMILES. Read-outs that look alike come from different tables or passages of the source. Some results are limits rather than exact numbers.

Sequence of hM3 muscarinic receptor (P20309 whole entry): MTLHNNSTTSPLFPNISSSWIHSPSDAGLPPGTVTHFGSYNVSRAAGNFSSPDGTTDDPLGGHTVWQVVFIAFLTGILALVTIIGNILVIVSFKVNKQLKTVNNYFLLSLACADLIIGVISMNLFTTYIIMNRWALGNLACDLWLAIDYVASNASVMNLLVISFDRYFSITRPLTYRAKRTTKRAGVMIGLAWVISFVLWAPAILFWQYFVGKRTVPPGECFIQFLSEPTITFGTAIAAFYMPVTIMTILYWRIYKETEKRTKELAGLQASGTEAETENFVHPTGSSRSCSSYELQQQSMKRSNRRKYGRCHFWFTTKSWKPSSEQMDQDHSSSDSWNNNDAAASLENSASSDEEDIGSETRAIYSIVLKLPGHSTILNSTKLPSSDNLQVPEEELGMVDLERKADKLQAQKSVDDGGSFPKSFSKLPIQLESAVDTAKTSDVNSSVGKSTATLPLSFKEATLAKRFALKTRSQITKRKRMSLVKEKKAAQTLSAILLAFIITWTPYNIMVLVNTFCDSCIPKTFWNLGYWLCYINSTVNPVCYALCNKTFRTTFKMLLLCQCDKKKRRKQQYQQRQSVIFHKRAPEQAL
Sequence of hβ2 adrenergic receptor (P07550 whole entry): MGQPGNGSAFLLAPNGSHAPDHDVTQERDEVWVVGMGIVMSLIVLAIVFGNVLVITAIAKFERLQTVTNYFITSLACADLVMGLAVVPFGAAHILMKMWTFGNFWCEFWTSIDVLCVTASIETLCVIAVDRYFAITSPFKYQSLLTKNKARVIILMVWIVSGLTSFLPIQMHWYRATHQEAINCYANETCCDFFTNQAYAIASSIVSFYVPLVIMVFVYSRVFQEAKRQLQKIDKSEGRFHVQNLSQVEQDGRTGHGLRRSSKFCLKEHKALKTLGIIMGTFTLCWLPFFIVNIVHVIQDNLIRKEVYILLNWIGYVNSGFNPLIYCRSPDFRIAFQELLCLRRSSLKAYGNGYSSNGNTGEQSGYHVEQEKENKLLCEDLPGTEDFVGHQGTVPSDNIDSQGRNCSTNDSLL

In experiment [1], `COc1cc(NC(=O)CCCN(C)C(=O)CCN2CCC(OC(=O)Nc3ccccc3-c3ccccc3)CC2)c(Cl)cc1CNC[C@H](O)c1ccc(O)c2[nH]c(=O)ccc12` [Compound I-6] returned a half-maximal effective concentration (EC50) of 1 nM. The molecule also yielded a Ki in experiment [2] (setting [4]) of 0.1 nM. The inhibition in vivo at 0.1 mg in experiment [3] is more than 30%.
`Cc1cc(CNC[C@H](O)c2ccc(O)c3[nH]c(=O)ccc23)ccc1NC(=O)CCCCN(C)C(=O)CCN1CCC(OC(=O)Nc2ccccc2-c2ccccc2)CC1` [Compound I-15]: the response in experiment [1] was half-maximal at 1 nM (EC50). In addition, affinity in experiment [2] was put at a Ki of 0.1 nM. Also, in experiment [3], the inhibition in vivo at 0.1 mg was more than 30%.
Molecule `COc1cc(NC(=O)CCCCN(C)C(=O)CCN2CCC(OC(=O)Nc3ccccc3-c3ccccc3)CC2)c(Cl)cc1CNC[C@H](O)c1ccc(O)c2[nH]c(=O)ccc12` [Compound I-19] registered a concentration for a half-maximal effect (EC50) in experiment [1] of 1 nM. In experiment [2], the Ki stood at 0.1 nM. Besides, in experiment [3], the inhibition in vivo at 0.1 mg was more than 30%.
Take `CN(C(=O)CCN1CCC(OC(=O)Nc2ccccc2-c2ccccc2)CC1)c1ccc(CC(=O)NCc2ccc(CCNC[C@H](O)c3ccc(O)c4[nH]c(=O)ccc34)cc2)cc1` [Compound I-64]: a half-maximal response in experiment [1] (EC50) required 1 nM. This molecule showed an inhibitory constant (Ki) in experiment [2] (setting [4]) of 0.3 nM. In experiment [3], the “Broncho. at 24 h” value was “No”.
As for `CC(Cc1cccc(CC(=O)NCCCCN(C)C(=O)CCN2CCC(OC(=O)Nc3ccccc3-c3ccccc3)CC2)c1)NC[C@H](O)c1ccc(O)c2[nH]c(=O)ccc12` (stereo partly drawn) [Compound I-22], the concentration giving a half-maximal response (EC50) in experiment [1] turned out to be 1 nM. For the same molecule, the inhibition constant (Ki) in experiment [2] was found to be 0.1 nM. Also, the inhibition in vivo at 0.1 mg in experiment [3] is more than 30%.

Values taken from patent US8551978B2 (Theravance, Inc., priority 2009, dated 2013).
